Data on 12 molecules can be found in patent US9926297B2, “Bicyclic AZA compounds as muscarinic M1 receptor and/or M4 receptor agonists” (Heptares Therapeutics Limited, priority 2014, dated 2018).

SMILES strings stand for the structures.

Assay [1] addresses T1, human muscarinic M1 receptor (Homo sapiens, UniProt P11229).
T1 sequence (P11229 1-460): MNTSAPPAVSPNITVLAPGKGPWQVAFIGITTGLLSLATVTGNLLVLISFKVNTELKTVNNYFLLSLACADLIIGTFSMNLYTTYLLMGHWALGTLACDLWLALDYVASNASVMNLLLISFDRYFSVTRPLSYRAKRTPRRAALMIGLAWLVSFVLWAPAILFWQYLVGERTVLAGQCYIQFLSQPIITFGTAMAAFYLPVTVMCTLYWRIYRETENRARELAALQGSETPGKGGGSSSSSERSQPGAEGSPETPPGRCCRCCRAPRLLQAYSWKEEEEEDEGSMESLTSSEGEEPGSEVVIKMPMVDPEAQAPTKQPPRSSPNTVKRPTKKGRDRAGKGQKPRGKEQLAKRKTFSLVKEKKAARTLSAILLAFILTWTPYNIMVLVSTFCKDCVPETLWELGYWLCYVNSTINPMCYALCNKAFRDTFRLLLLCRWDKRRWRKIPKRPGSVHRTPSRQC
As to the kind of experiment: Alphascreen Surefire phospho-ERK1/2 functional assay, M1. Type of assay: cell-based. The settings on record: for EC50: CHO cells stably expressing human M1, phospho-ERK1/2, * = variable results, read-out: pEC50 M1 (converted); for Emax: CHO, read-out: % Emax cf. ACh, M1, CHO cells stably expressing human M1, relative to ACh. For orientation: Alpha assays give light when donor and acceptor beads are brought close together.

The target of assay [2] is T2, human muscarinic M4 receptor (Homo sapiens, UniProt P08173).
T2 construct: expressed in transfected cells
T2 sequence (P08173 1-479): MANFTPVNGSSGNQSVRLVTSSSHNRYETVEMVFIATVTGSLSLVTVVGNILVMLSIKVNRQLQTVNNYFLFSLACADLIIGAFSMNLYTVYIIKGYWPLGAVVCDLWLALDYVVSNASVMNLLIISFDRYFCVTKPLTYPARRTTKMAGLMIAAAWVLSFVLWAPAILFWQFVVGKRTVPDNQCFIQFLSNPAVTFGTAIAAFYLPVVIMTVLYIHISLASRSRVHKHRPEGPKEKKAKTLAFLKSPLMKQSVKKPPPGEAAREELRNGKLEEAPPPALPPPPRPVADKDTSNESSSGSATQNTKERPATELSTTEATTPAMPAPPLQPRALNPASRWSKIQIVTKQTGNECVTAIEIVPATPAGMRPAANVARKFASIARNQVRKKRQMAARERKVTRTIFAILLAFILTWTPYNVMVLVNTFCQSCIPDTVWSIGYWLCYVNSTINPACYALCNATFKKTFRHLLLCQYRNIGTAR
As to the kind of experiment: Alphascreen Surefire phospho-ERK1/2 functional assay, M4. The assay is classed as cell-based. The following applies: for EC50: CHO cells stably expressing human M4, phospho-ERK1/2, * = variable results, read-out: pEC50 M4 (converted); for Emax: CHO, read-out: % Emax cf. ACh, M4, CHO cells stably expressing human M4, relative to ACh.

Assay [3] addresses T3, human muscarinic M2 receptor (Homo sapiens, UniProt P08172).
T3 sequence (P08172 1-466): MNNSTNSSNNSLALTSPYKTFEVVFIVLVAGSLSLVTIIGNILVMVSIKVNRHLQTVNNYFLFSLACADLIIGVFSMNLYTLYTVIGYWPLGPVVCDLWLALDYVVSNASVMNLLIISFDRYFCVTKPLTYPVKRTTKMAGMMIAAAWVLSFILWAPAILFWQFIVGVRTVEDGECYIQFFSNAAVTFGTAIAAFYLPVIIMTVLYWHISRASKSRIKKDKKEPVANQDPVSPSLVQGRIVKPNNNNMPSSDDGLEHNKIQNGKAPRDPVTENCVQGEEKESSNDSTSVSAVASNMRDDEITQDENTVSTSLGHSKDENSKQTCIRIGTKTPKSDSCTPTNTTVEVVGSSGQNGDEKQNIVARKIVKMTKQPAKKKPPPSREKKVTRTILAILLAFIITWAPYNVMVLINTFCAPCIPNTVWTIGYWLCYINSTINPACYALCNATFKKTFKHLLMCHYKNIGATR
As to the kind of experiment: Alphascreen Surefire phospho-ERK1/2 functional assay, M2. The settings on record: for Emax: CHO, read-out: % Emax cf. ACh, M2, CHO cells stably expressing human M2, relative to ACh.

The target of assay [4] is human muscarinic M3 receptor (Homo sapiens, UniProt P20309). As to the kind of experiment: Alphascreen Surefire phospho-ERK1/2 functional assay, M3. The settings on record: for Emax: CHO, read-out: % Emax cf. ACh, M3, CHO cells stably expressing human M3, relative to ACh; for EC50: pEC50 M3, CHO cells stably expressing human M3, phospho-ERK1/2, * = variable results.
Sequence of human muscarinic M3 receptor (P20309 whole entry): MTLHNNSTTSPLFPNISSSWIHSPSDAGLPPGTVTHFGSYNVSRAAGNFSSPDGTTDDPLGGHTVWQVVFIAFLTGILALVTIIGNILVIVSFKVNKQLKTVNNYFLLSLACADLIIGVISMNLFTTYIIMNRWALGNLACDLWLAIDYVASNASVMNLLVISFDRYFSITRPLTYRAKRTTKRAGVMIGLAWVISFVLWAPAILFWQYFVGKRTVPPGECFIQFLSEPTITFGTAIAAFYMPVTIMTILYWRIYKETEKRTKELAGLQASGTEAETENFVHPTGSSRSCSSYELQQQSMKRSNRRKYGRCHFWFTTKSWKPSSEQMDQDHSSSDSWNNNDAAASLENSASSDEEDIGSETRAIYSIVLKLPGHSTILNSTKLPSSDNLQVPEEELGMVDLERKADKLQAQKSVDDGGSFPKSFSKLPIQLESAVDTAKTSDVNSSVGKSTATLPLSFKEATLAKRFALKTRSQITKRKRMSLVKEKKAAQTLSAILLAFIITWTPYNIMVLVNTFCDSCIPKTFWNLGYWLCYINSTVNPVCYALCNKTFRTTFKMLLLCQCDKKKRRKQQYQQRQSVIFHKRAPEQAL
Experimental: CHO cells stably expressing the human muscarinic M1, M2, M3 or M4 receptor were plated (25K/well) onto 96-well tissue culture plates in MEM-alpha+10% dialysed FBS. Once adhered, cells were serum-starved overnight. Agonist stimulation was performed by the addition of 5 μL agonist to the cells for 5 min (37° C.). Media was removed and 50 μL of lysis buffer added. After 15 min, a 4 μL sample was transferred to 384-well plate and 7 μL of detection mixture added. Plates were incubated for 2 h with gentle agitation in the dark and then read on a PHERAstar plate reader.
pEC50 and Emax figures were calculated from the resulting data for each receptor subtype.

Take `CCOC(=O)N1CCC2(CC(N3CCC(c4ncc[nH]4)CC3)C2)C1` (single isomer, unassigned) [1-1 Isomer 2, ethyl 2-[4-(1H-imidazol-2-yl)piperidin-1-yl]-6-azaspiro[3.4]octane-6-carboxylate]: the EC50 is 63.1 nM in assay [1], 7.94 nM in assay [2], greater than 20000 nM in assay [3] and greater than 20000 nM in assay [4]. Further, the Emax was 121% in assay [1], 112% in assay [2], 20% in assay [3] and 26% in assay [4].

For the molecule `CCOC(=O)N1CCC2(CC(N3CCC(c4nc(Cl)c[nH]4)CC3)C2)C1` (single isomer, unassigned) [1-2 Isomer 2, ethyl 2-[4-(4-chloro-1H-imidazol-2-yl)piperidin-1-yl]-6-azaspiro[3.4]octane-6-carboxylate], the EC50 in assay [1] was 251 nM; in assay [2] it was 25.1 nM; in assay [3] it was greater than 20000 nM; in assay [4] it was greater than 20000 nM. For the same molecule, the Emax in assay [1] came out at 93%; in assay [2] it was 100%; in assay [3], 6%; in assay [4] it was 4%.

As for `CCOC(=O)N1CCC2(CC(N3CCC(c4nc(Cl)c(Cl)[nH]4)CC3)C2)C1` (single isomer, unassigned) [1-5 Isomer 2, ethyl 2-[4-(4,5-dichloro-1H-imidazol-2-yl)piperidin-1-yl]-6-azaspiro[3.4]octane-6-carboxylate], the EC50 in assay [1] is 126 nM; in assay [2] it was 20 nM; in assay [3], greater than 20000 nM; in assay [4], greater than 20000 nM. Besides, the Emax is 94% in assay [1], 81% in assay [2], 19% in assay [3] and 2% in assay [4].

For the molecule `COC(=O)N1CCC2(CC(N3CCC(c4nccn4C)CC3)C2)C1` (single isomer, unassigned) [1-6 Isomer 2, methyl 2-[4-(1-methyl-1H-imidazol-2-yl)piperidin-1-yl]-6-azaspiro[3.4]octane-6-carboxylate], the EC50 in assay [1] was 1260 nM; in assay [2] it was 63.1 nM; in assay [3], greater than 20000 nM; in assay [4], 63.1 nM. For the same molecule, the Emax is 128% in assay [1], 71% in assay [2], 57% in assay [3] and 38% in assay [4].

`CCOC(=O)N1CCC2(CC(N3CCC(c4nccn4C)CC3)C2)C1` (single isomer, unassigned) [1-7 Isomer 2, ethyl 2-[4-(1-methyl-1H-imidazol-2-yl)piperidin-1-yl]-6-azaspiro[3.4]octane-6-carboxylate]: the EC50 in assay [1] was 158 nM; in assay [2] it was 25.1 nM; in assay [3] it was greater than 20000 nM; in assay [4] it was greater than 20000 nM. Moreover, the Emax was found to be 97% in assay [1], 97% in assay [2], 15% in assay [3] and 22% in assay [4].

On to `CCOC(=O)N1CCC2(CC(N3CCC(c4nccn4C(=O)OCC)CC3)C2)C1` (single isomer, unassigned) [1-8 Isomer 2, ethyl 2-{4-[1-(ethoxycarbonyl)-1H-imidazol-2-yl]piperidin-1-yl}-6-azaspiro[3.4]octane-6-carboxylate], for which the EC50 in assay [1] is 316 nM; in assay [2] it was 15.8 nM; in assay [3] it was greater than 20000 nM; in assay [4], greater than 20000 nM. Besides, the Emax in assay [1] stood at 76%; in assay [2], 98%; in assay [3], 34%; in assay [4], 0%.

For the molecule `CCOC(=O)N1CCC2(CC(N3CCC(c4nc(C)cn4C)CC3)C2)C1` (single isomer, unassigned) [1-12 Isomer 2, ethyl 2-[4-(1,4-dimethyl-1H-imidazol-2-yl)piperidin-1-yl]-6-azaspiro[3.4]octane-6-carboxylate], the EC50 in assay [1] was 1000 nM; in assay [2] it was 126 nM; in assay [3], greater than 20000 nM; in assay [4] it was greater than 20000 nM. Also, the Emax in assay [1] was 85%; in assay [2] it was 128%; in assay [3], 11%; in assay [4], 15%.

Take `CCOC(=O)N1CCC2(CC(N3CCC(c4ncc(Cl)n4C)CC3)C2)C1` (single isomer, unassigned) [1-14 Isomer 2, ethyl 2-[4-(5-chloro-1-methyl-1H-imidazol-2-yl)piperidin-1-yl]-6-azaspiro[3.4]octane-6-carboxylate]: the EC50 in assay [1] was 631 nM; in assay [2] it was 50.1 nM; in assay [3], greater than 20000 nM; in assay [4] it was greater than 20000 nM. For the same molecule, the Emax in assay [1] was found to be 66%; in assay [2], 99%; in assay [3] it was 27%; in assay [4] it was 5%.

On to `CCOC(=O)N1CCC2(CC(N3CCC(c4nc(C(F)(F)F)cn4C)CC3)C2)C1` (single isomer, unassigned) [1-15 Isomer 2, ethyl 2-{4-[1-methyl-4-(trifluoromethyl)-1H-imidazol-2-yl]piperidin-1-yl}-6-azaspiro[3.4]octane-6-carboxylate], for which the figures for the EC50 in assay [1], in assay [3] and in assay [4] were 100 nM, greater than 20000 nM and greater than 20000 nM, respectively. For the same molecule, the results for the Emax in assay [1], in assay [3] and in assay [4] were 70%, 4% and 6%, respectively.

On to `COC(=O)N1CCC2(CC(N3CCC(c4nc(Cl)c(Cl)n4C)CC3)C2)C1` (single isomer, unassigned) [1-16 Isomer 2, methyl 2-[4-(4,5-dichloro-1-methyl-1H-imidazol-2-yl)piperidin-1-yl]-6-azaspiro[3.4]octane-6-carboxylate], for which the EC50 in assay [1] is 1580 nM; in assay [2], 158 nM; in assay [3], 7940 nM; in assay [4], greater than 20000 nM. In addition, the Emax amounted to 80% in assay [1], 82% in assay [2], 34% in assay [3] and 1% in assay [4].

Take `CCOC(=O)N1CCC2(CC(N3CCC(c4nc(Cl)c(Cl)n4C)CC3)C2)C1` (single isomer, unassigned) [1-17 Isomer 2, ethyl 2-[4-(4,5-dichloro-1-methyl-1H-imidazol-2-yl)piperidin-1-yl]-6-azaspiro[3.4]octane-6-carboxylate]: the EC50 in assay [1] was 631 nM; in assay [2], 63.1 nM; in assay [3] it was greater than 20000 nM; in assay [4], greater than 20000 nM. The Emax in assay [1] was 53%; in assay [2] it was 90%; in assay [3], 14%; in assay [4], 0%.

With `CCOC(=O)N1CCC2(CC(N3CCC(c4ccn[nH]4)CC3)C2)C1` (single isomer, unassigned) [1-18 Isomer 2, ethyl 2-[4-(1H-pyrazol-5-yl)piperidin-1-yl]-6-azaspiro[3.4]octane-6-carboxylate], the EC50 was 126 nM in assay [1], 50.1 nM in assay [2], greater than 20000 nM in assay [3] and greater than 20000 nM in assay [4]. Moreover, the Emax in assay [1] was found to be 65%; in assay [2], 89%; in assay [3], 3%; in assay [4] it was 56%.

Broadly, the Emax is the maximal effect, on the per cent scale that the assay sets.
